According to US9526250B2, “Methods for delaying maturity of crops” (Plant Protectants, LLC, priority 2009, dated 2016):

Assays:
green lemons = assay: Fruit dipping of green lemons, peel color development (example 1); assay type: in vivo; details: 2 min immersion at 50° F., incubated at 15° C., chart of FIG. 2 (1-8), initial color approx 5.5
Excerpt: (§1) The invention is further illustrated by the following non-limiting examples. It is to be appreciated that, although each of the exemplary experiments used potassium phosphite, that other salts of phosphorous acid, including without limitation, ammonium, sodium, and/or calcium salts, as well as phosphorous acid itself may also have been used. For examples 1 and 2 below, assessment of citrus fruit peel color was made using the following color grading charts (FIG. 1 for Navels; FIG. 2 for Lemons) in addition to the Dictionary of Color by Maerz and Paul, First Edition (1930). All experiments were conducted in solutions at approximately pH 6, although pH ranges from between about 3 and about 9 are acceptable.
Five different treatments (A-E below) were made. There were four replications for each of the five treatments, with each replicate comprising six fruit pieces. Thus, each treatment was applied to 24 fruit pieces. […]
After the treatments were applied and left to dry for 10 minutes, all treatments were recorded for peel color using FIG. 2 above and the Dictionary of Color, and rated for color development and photographed. The fruit was placed in humid incubators at 15° C. and monitored weekly for color development. […]

firm green tomatoes = assay: Fruit dipping of firm green tomatoes, peel color development (example 4); assay type: in vivo; details: 2 min immersion at 75° F., incubated at 30° C., USDA chart of FIG. 5, initial 3.5
Excerpt: For example 4 below, assessment of the tomato peel color was made using the USDA color grading chart (FIG. 5) in addition to the Dictionary of Color.
The color grading chart (FIG. 5) is a reproduction of the “Tomato Color Standards USDA Visual Aid TM-L-1” which consists of a chart containing twelve color photographs illustrating certain color classification requirements. The official USDA chart is incorporated herein by this reference. Table 6 below sets forth approximate cross-references to the Dictionary of Color for the 12 colors of the USDA chart:
In example 4, five different treatments (A-E below) were made. There were four replications for each of the five treatments, with each replicate comprising six fruit pieces. Thus, each treatment was applied to 24 fruit pieces. The fruit treated in this example were firm green tomatoes according to the chart above was 3.5 (initial color 11-C-22) at the onset of color break. Immersion temperatures were approximately 75° F. (24° C.). […]
After the treatments were applied and left to dry for 10 minutes, all treatments were recorded for peel color using the Dictionary of Color and also the USDA Tomato Color Standards Chart (FIG. 5 herein), and rated for color development and photographed. […] (86° F.) and monitored weekly for color development. […]

oranges (Navels) = assay: Fruit dipping of oranges at color break, peel color development (example 2); assay type: in vivo, navel oranges; details: 2 min immersion at 50° F., incubated at 15° C., chart of FIG. 1 (1-8), initial color 5.5
Excerpt: as §1
Five different treatments (A-E below) were made. There were four replications for each of the five treatments, with each replicate comprising six fruit pieces. Thus, each treatment was applied to 24 fruit pieces. The fruit treated in this example were oranges at the color break stage, the fruit being predominantly green with some development of orange color (initial color 5.5). […]
After the treatments were applied and left to dry for 10 minutes, all treatments were recorded for peel color using FIG. 1 above and the Dictionary of Color, and rated for color development and photographed. The fruit was placed in humid incubators at 15° C. and monitored weekly for color development. […]

[1] = system: navel orange tree (variety Cara Cara); assay: Field spray of navel orange trees in situ, fruit color development (example 3); assay type: in vivo; details: Navels on trees, pH about 5-6, assessed approximately 30 days later, chart of FIG. 1
Excerpt: Five different treatments (T1-T5 below) were made. There were four replications for each of the five treatments, with each replicate comprising one navel orange tree (variety Cara Cara) in situ. Thus, each treatment was applied to 4 different trees. Treatments were all made using a motorized high volume agricultural sprayer and an application volume equivalent to 5000 L/ha (liters/hectare), or approximately 530 gallons/acre. This is approximately equivalent to 12.5 L (3.3 gal)/tree. The trees were sprayed during early color break (late October/early November) with a wetting agent added at 0.01% (v/v).
Treatments were as follows: • T1. Untreated trees=control. • T2. Water solution containing gibberellic acid at 16 ppm. • T3. Water solution containing potassium phosphite (expressed as equivalent amount of phosphorous acid) sprayed at 600 ppm. • T4. A tank water mixture of potassium phosphite (expressed as equivalent amount of phosphorous acid) sprayed at 300 ppm plus gibberellic acid at 16 ppm • T5. […]
The spray tank pH for all the treatments T2-T5 were adjusted with citric acid to a pH of between about 5 and about 6 (in accordance with the manufacturers instructions for gibberellic acid usage), and a small amount of a non ionic wetter added to the tank (0.01% v/v). […] The fruit on the trees were assessed for color development approximately 30 days later, during December. […]

[2] = gibberellic acid 100 ppm in water

| Molecule | Mean Color Rating (green lemons; 2% (w/w) potassium phosphite) [c] | Mean Color Rating (firm green tomatoes; 2% (w/w) potassium phosphite) [b] | Mean Color Rating (oranges (Navels); 2% (w/w) potassium phosphite) [bc] | Mean Color Rating ([1]; potassium phosphite 600 ppm (as phosphorous acid) sprayed at 5000 L/ha) [bc] | Mean Color Rating (green lemons; [2]) [b] | Mean Color Rating (firm green tomatoes; gibberellic acid 100 ppm) [b] | Mean Color Rating (oranges (Navels); [2]) [b] | Mean Color Rating ([1]; gibberellic acid 16 ppm sprayed at 5000 L/ha) [b] |
| --- | --- | --- | --- | --- | --- | --- | --- | --- |
| potassium phosphite | 3.6 | 4.8 | 3.5 | 3.5 |  |  |  |  |
| C=C1C[C@]23C[C@@]1(O)CC[C@H]2[C@@]12C=C[C@H](O)[C@@](C)(C(=O)O1)[C@H]2[C@@H]3C(=O)O [Gibberellic acid (GA), gibberellic acid] |  |  |  |  | 3 | 4.6 | 3.2 | 3.2 |
